Patent US7192974B2, “Hydroxymethyl substituted dihydroisoxazole derivatives useful as antibiotic agents” (AstraZeneca AB, priority 2003, dated 2007)
Where a name gives a salt, the structure may show the parent alone.

Row | Compound | melting point [°C]
1 | C[N+](C)(C)CCOC(=O)OC[C@@H]1CC(c2ccc(-c3ccc(N4C[C@H](Cn5ccnn5)OC4=O)cc3F)cn2)=NO1 (as salt: chloride) [Example 32, 2-[({[(5S)-3-(5-{2-fluoro-4-[(5R)-2-oxo-5-(1H-1,2,3-triazol-1-ylmethyl)-1,3-oxazolidin-3-yl]phenyl}pyridin-2-yl)-4,5-dihydrolsoxazol-5-yl]methoxy}carbonyl)oxy]-N,N,N-trimethylethanaminium chloride] | 180 to 190
2 | NCCC(=O)OC[C@@H]1CC(c2ccc(-c3ccc(N4C[C@H](Cn5ccnn5)OC4=O)cc3F)cn2)=NO1 (as salt: hydrochloride) [Example 8, [(5S)-3-(5-{2-Fluoro-4-[(5R)-2-oxo-5-(1H-1,2,3-triazol-1-ylmethyl)-1,3-oxazolidin-3-yl]phenyl}pyridin-2-yl)-4,5-dihydroisoxazol-5-yl]methyl β-alaninate] | 68 to 75
3 | CN(C)CC(=O)OCC1CC(c2ccc(-c3ccc(N4C[C@H](Cn5ccnn5)OC4=O)cc3F)cn2)=NO1 (stereo partly drawn) (as salt: hydrochloride) [Example 26, [3-(5-{2-fluoro-4-[(5R)-2-oxo-5-(1H-1,2,3-triazol-1-ylmethyl)-1,3-oxazolidin-3-yl]phenyl}pyridin-2-yl)-4,5-dihydroisoxazol-5-yl]methyl N,N-dimethylglycinate] | 175 to 180
4 | CN(C)CC(=O)N(C)CCCCC(=O)OC[C@@H]1CC(c2ccc(-c3ccc(N4C[C@H](Cn5ccnn5)OC4=O)cc3F)cn2)=NO1 (as salt: hydrochloride) [Example 38, [(5S)-3-(5-{2-fluoro-4-[(5R)-2-oxo-5-(1H-1,2,3-triazol-1-ylmethyl)-1,3-oxazolidin-3-yl]phenyl}pyridin-2-yl)-4,5-dihydroisoxazol-5-yl]methyl 5-[(N,N-dimethylglycyl)(methyl)amino]pentanoate] | 133
5 | CN(C)CCCC(=O)OC[C@@H]1CC(c2ccc(-c3ccc(N4C[C@H](Cn5ccnn5)OC4=O)cc3F)cn2)=NO1 [Example 9, [(5S)-3-(5-{2-Fluoro-4-[(5R)-2-oxo-5-(1H-1,2,3-triazol-1-ylmethyl)-1,3-oxazolidin-3-yl]phenyl}pyridin-2-yl)-4,5-dihydroisoxazol-5-yl]methyl 4-(dimethylamino)butanoate] | 148
6 | CCN(CC)CCC(=O)OC[C@@H]1CC(c2ccc(-c3ccc(N4C[C@H](Cn5ccnn5)OC4=O)cc3F)cn2)=NO1 [Example 11, [(5S)-3-(5-{2-Fluoro-4-[(5R)-2-oxo-5-(1H-1,2,3-triazol-1-ylmethyl)-1,3-oxazolidin-3-yl]phenyl}pyridin-2-yl)-4,5-dihydroisoxazol-5-yl]methyl N,N-diethyl-β-alaninate] | 167
7 | COCC(=O)OC[C@@H]1CC(c2ccc(-c3ccc(N4C[C@H](Cn5ccnn5)OC4=O)cc3F)cn2)=NO1 [Example 12, [(5S)-3-(5-{2-Fluoro-4-[(5R)-2-oxo-5-(1H-1,2,3-triazol-1-ylmethyl)-1,3-oxazolidin-3-yl]phenyl}pyridin-2-yl)-4,5-dihydroisoxazol-5-yl]methyl methoxyacetate] | 170
8 | COCCC(=O)OC[C@@H]1CC(c2ccc(-c3ccc(N4C[C@H](Cn5ccnn5)OC4=O)cc3F)cn2)=NO1 [Example 13, [(5S)-3-(5-{2-Fluoro-4-[(5R)-2-oxo-5-(1H-1,2,3-triazol-1-ylmethyl)-1,3-oxazolidin-3-yl]phenyl}pyridin-2-yl)-4,5-dihydroisoxazol-5-yl]methyl 3-methoxypropanoate] | 149
9 | COC(=O)OC[C@@H]1CC(c2ccc(-c3ccc(N4C[C@H](Cn5ccnn5)OC4=O)cc3F)cn2)=NO1 [Example 14, [(5S)-3-(5-{2-Fluoro-4-[(5R)-2-oxo-5-(1H-1,2,3-triazol-1-ylmethyl)-1,3-oxazolidin-3-yl]phenyl}pyridin-2-yl)-4,5-dihydroisoxazol-5-yl]methyl methyl carbonate] | 205
10 | COCCOC(=O)OC[C@@H]1CC(c2ccc(-c3ccc(N4C[C@H](Cn5ccnn5)OC4=O)cc3F)cn2)=NO1 [Example 15, [(5S)-3-(5-{2-Fluoro-4-[(5R)-2-oxo-5-(1H-1,2,3-triazol-1-ylmethyl)-1,3-oxazolidin-3-yl]phenyl}pyridin-2-yl)-4,5-dihydroisoxazol-5-yl]methyl 2-methoxyethyl carbonate] | 112
11 | O=C(OC[C@@H]1CC(c2ccc(-c3ccc(N4C[C@H](Cn5ccnn5)OC4=O)cc3F)cn2)=NO1)c1ccc[n+]([O-])c1 [Example 25, [(5S)-3-(5-{2-fluoro-4-[(5R)-2-oxo-5-(1H-1,2,3-triazol-1-ylmethyl)-1,3-oxazolidin-3-yl]phenyl}pyridin-2-yl)-4,5-dihydroisoxazol-5-yl]methyl nicotinate 1-oxide] | 255
12 | COCCCOC(=O)OC[C@@H]1CC(c2ccc(-c3ccc(N4C[C@H](Cn5ccnn5)OC4=O)cc3F)cn2)=NO1 [Example 29, (5S)-3-(5-{2-fluoro-4-[(5R)-2-oxo-5-(1H-1,2,3-triazol-1-ylmethyl)-1,3-oxazolidin-3-yl]phenyl}pyridin-2-yl)-4,5-dihydroisoxazol-5-yl]methyl 3-methoxypropyl carbonate] | 142

Continued, values first:

Row | melting point [°C] | Compound
13 | 184 | CNCCCCC(=O)OC[C@@H]1CC(c2ccc(-c3ccc(N4C[C@H](Cn5ccnn5)OC4=O)cc3F)cn2)=NO1 (as salt: hydrochloride) [Example 37, [(5S)-3-(5-{2-fluoro-4-[(5R)-2-oxo-5-(1H-1,2,3-triazol-1-ylmethyl)-1,3-oxazolidin-3-yl]phenyl}pyridin-2-yl)-4,5-dihydroisoxazol-5-yl]methyl 5-(methylamino)pentanoate]
14 | 88 | CCOC(=O)CCCCC(=O)OC[C@@H]1CC(c2ccc(-c3ccc(N4C[C@H](Cn5ccnn5)OC4=O)cc3F)cn2)=NO1 [Example 6, Ethyl [(5S)-3-(5-{2-fluoro-4-[(5R)-2-oxo-5-(1H-1,2,3-triazol-1-ylmethyl)-1,3oxazolidin-3-yl]phenyl}pyridin-2-yl)-4,5-dihydroisoxazol-5-yl]methyl hexanedioate]
15 | 90 | COC(=O)NCCCCC(=O)OC[C@@H]1CC(c2ccc(-c3ccc(N4C[C@H](Cn5ccnn5)OC4=O)cc3F)cn2)=NO1 [Example 10, [(5S)-3-(5-{2-Fluoro-4-[(5R)-2-oxo-5-(1H-1,2,3-triazol-1-ylmethyl)-1,3-oxazolidin-3-yl]phenyl}pyridin-2-yl)-4,5-dihydroisoxazol-5-yl]methyl 5-[(methoxycarbonyl)amino]pentanoate]
16 | 154 | COCCCC(=O)OC[C@@H]1CC(c2ccc(-c3ccc(N4C[C@H](Cn5ccnn5)OC4=O)cc3F)cn2)=NO1 [Example 17, [(5S)-3-(5-{2-Fluoro-4-[(5R)-2-oxo-5-(1H-1,2,3-triazol-1-ylmethyl)-1,3-oxazolidin-3-yl]phenyl}pyridin-2-yl)-4,5-dihydroisoxazol-5-yl]methyl 4-methoxybutanoate]
17 | 183 | CCOC(=O)NCCCCC(=O)OCC1CC(c2ccc(-c3ccc(N4C[C@H](Cn5ccnn5)OC4=O)cc3F)cn2)=NO1 (stereo partly drawn) [Example 27, [(5S)-3-(5-{2-fluoro-4-[(5R)-2-oxo-5-(1H-1,23-triazol-1-ylmethyl)-1,3-oxazolidin-3-yl]phenyl}pyridin-2-yl)-4,5-dihydroisoxazol-5-yl]methyl 5-[(ethoxycarbonyl)amino]pentanoate]
